Bridge positions count the residues as written; N and C are the ends. Square brackets hold non-standard residues; d marks the D form. Peptide text beside a SMILES is read from it. I, II: the chains in the order shown. hArg = N=C(N)NCCCC[C@H](N)C(=O)O; Ac5c = NC1(C(=O)O)CCCC1; Aib = CC(C)(N)C(=O)O
How the values were obtained:
ovariectomized (OVX) rat = experiment: OVX rat model, bone strength measurements; format: in vivo; conditions: for bone strength of the femoral head in a compression test: FIG. 10; for bone strength of the femoral head in a compression test / bone strength of the femur in a three-point bending test versus vehicle-treated OVX animals: all doses; for bone strength of the femur, shaft region and femoral head region, versus vehicle-treated OVX-group: FIGS. 10 and 11
Method: One hundred and seventy-eight female Fisher rats were used for the experiment. Initially the animals were housed in Macrolon type 3 cages (2 rats/cage) under controlled conditions (20° C., 55-85% humidity) following a 12:12-hrs light/dark cycle with light on at 6 am. The animals were fed ad libitum with standard Altromin No. 1324 diet (Chr. Petersen, Ringsted, Denmark). The animals had free access to drinking water (domestic quality tap water added citric acid to pH≈3). At the time of inclusion the animals were 6 months old.
The week before OVX the animals were stratified according to body weight into two groups that were subjected to either OVX (140 animals) or sham operation (38 animals). Rats were anaesthetized with Hypnorm-Dormicum and the ovariectomy was performed through a midline laparotomy. Sham-operated animals were subjected to midline laparotomy, and the ovaries were exposed but not removed (sham). This group served as an age matched non-osteoporotic control group. A microchip was implanted into each rat during surgery, in order to allow identification of the animals.
To allow osteopenia to develop before treatment start, animals were housed for 7 weeks (pre-treatment period) without pharmacological treatment. At the end of the pre-treatment period, sham- and OVX-operated rats were stratified according to bodyweight and divided into six groups of 13-20 animals each (Table 7). At this point, one OVX group (N=20) and one sham group (N=20) were sacrificed. These control groups established baseline levels of bone mineral density (BMD). Furthermore, samples were stored for possible later analysis of bone markers, bone strength, histomorphometry and μCT scans.
For the following 6 weeks one sham group and one OVX group were subjected to vehicle administration (40 mM sodium acetate, 45 mM histidine and 3.9% mannitol, pH 5.5, 300 mOsm/kg). Five OVX groups were treated with increasing doses of the cyclic PTH(1-17) analogue SEQ ID NO: 19. Another OVX group was treated with SEQ ID NO: 33 (Table 7). All drugs were given as s.c. injections. After 6 weeks of treatment the animals were sacrificed. Spine, tibia and femur were collected for analysis of BMD by DEXA-scan and bone samples were stored for later bone strength measurements.
Lumbar vertebrae (L4-L5-L6-S1), left femur and tibia were collected, cleaned, packed in saline moistened gaze in a tube and stored at −20° C. for later ex vivo bone strength measurements. Right femur and tibia as well as lumbar vertebrae (T13-L1-L2-L3) and caudal vertebrae (S2-S3-C1-C2-C3) were collected, cleaned and stored in 70% ethanol for analysis of bone mineral density (BMD) and possible later histomorphometry and/or μCT scanning.
Bone strength measurements were performed on a compression device (Lloyd Instruments, Fareham, UK). Bones were positioned with the help of custom-made holders, in order to achieve maximal reproducibility. Maximal force to fracture was determined.
Overall comparison among groups was performed using one-way ANOVA for one-way classified data (BMD). For individual comparisons among groups, post-hoc analysis was performed using Fisher's least significant difference test. Differences were considered significant at the 5% level. All data are presented as mean±SEM.

Saos-2 PTH1R = biological target: T1, Saos-2 PTH1R (Homo sapiens, UniProt Q03431); experiment: cAMP-efficacy assay in Saos-2 cells; format: cell-based; conditions: for Emax ± SEM: relative effect to the control (SEQ ID NO: 32)
T1 construct: endogenous in cells; host or cells: Saos-2
T1 sequence (Q03431 27-593): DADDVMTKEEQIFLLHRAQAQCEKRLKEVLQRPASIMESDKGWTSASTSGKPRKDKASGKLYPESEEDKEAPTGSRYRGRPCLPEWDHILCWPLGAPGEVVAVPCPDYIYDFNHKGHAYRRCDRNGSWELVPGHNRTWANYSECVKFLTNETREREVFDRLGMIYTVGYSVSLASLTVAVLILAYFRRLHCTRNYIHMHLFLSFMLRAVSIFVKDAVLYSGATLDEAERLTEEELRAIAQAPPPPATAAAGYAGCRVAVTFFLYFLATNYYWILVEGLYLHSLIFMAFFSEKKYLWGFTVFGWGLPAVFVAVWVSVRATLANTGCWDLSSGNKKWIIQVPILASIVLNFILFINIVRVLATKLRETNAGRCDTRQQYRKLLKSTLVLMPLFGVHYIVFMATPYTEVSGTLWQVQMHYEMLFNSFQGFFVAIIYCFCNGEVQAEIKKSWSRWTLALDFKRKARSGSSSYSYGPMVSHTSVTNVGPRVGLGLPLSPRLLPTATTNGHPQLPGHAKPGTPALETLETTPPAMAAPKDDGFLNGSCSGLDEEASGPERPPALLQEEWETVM
Summary of the method: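 cAMP accumulation was assayed by FlashPlate after 15 min peptide stimulation at 37 °C of Saos-2 cells in Tyrode's buffer containing 100 μM IBMX and 0.1% BSA, with the reaction stopped by ice-cold HCl. Variable-slope logistic fitting gave EC50/pEC50, Hill coefficient and Emax, with single or triplicate points.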

Row | SMILES | bone strength of the femoral head in a compression test (ovariectomized (OVX) rat) | bone strength of the femur in a three-point bending test versus vehicle-treated OVX animals (ovariectomized (OVX) rat; FIG. 11) | bone strength of the femur in a three-point bending test versus vehicle-treated sham animals (ovariectomized (OVX) rat; FIG. 11, doses higher than 20 nmol/kg/d) | bone strength of the femur, shaft region and femoral head region, versus vehicle-treated OVX-group (ovariectomized (OVX) rat) | bone strength versus vehicle-treated sham-operated group (ovariectomized (OVX) rat; doses greater than 20 nmol/kg/d) | EC50 (Saos-2 PTH1R; cAMP, 100 μM IBMX, 37° C. 15 min, suffix of label = salt tested) [nM] | Emax ± SEM (Saos-2 PTH1R) | bone strength compared to vehicle-treated OVX-group (ovariectomized (OVX) rat; 5 nmol/kg/d)
1 | CC[C@H](C)[C@H](NC(=O)[C@H](CCC(=O)O)NC(=O)C(C)(C)NC(=O)[C@@H](NC(=O)C1(N)CCCC1)C(C)C)C(=O)N[C@@H](CCC(N)=O)C(=O)N[C@@H](CC(C)C)C(=O)N[C@@H](CC(C)C)C(=O)N[C@@H](Cc1c[nH]cn1)C(=O)N[C@@H](CCC(N)=O)C(=O)N[C@@H](CCCCNC(=N)N)C(=O)N[C@@H](C)C(=O)N[C@H]1CCCCNC(=O)C[C@@H](C(N)=O)NC(=O)[C@H](CC(N)=O)NC(=O)[C@H](CC(C)C)NC(=O)[C@H](Cc2c[nH]c3ccccc23)NC1=O [SEQ ID NO: 19, H-Ac5c-Val-Aib-Glu-Ile-Gln-Leu-Leu-His-Gln-Har-Ala-Lys( )-Trp-Leu-Asn-Asp( )-NH2] (H-[Ac5c]V[Aib]EIQLLHQ[hArg]AKWLND-NH2; lactam 13-17) | higher than in vehicle-treated OVX and sham animals at all doses | higher than in vehicle-treated OVX animals at all doses | increased strength compared to vehicle-treated sham animals | significantly increased | significantly increased | 10.2 | 1.05 ± 0.04 | –
2 | CC[C@H](C)[C@H](NC(=O)[C@H](CCC(=O)O)NC(=O)C(C)(C)NC(=O)[C@@H](NC(=O)C1(N)CCCC1)C(C)C)C(=O)N[C@@H](CCC(N)=O)C(=O)N[C@@H](CC(C)C)C(=O)N[C@@H](CCSC)C(=O)N[C@@H](Cc1c[nH]cn1)C(=O)N[C@@H](CCC(N)=O)C(=O)N[C@@H](CCCCNC(=N)N)C(=O)N[C@@H](C)C(=O)N[C@H]1CCCCNC(=O)C[C@@H](C(N)=O)NC(=O)[C@H](CC(C)C)NC(=O)[C@H](Cc2c[nH]c3ccccc23)NC(=O)[C@@H](NC(=O)[C@H](C)NC(=O)[C@H](CCCCNC(=N)N)NC(=O)[C@H](CCC(N)=O)NC(=O)[C@H](Cc2c[nH]cn2)NC(=O)[C@H](CCSC)NC(=O)[C@H](CC(C)C)NC(=O)[C@H](CCC(N)=O)NC(=O)[C@@H](NC(=O)[C@H](CCC(=O)O)NC(=O)C(C)(C)NC(=O)[C@@H](NC(=O)C2(N)CCCC2)C(C)C)[C@@H](C)CC)CCCCNC(=O)C[C@@H](C(N)=O)NC(=O)[C@H](CC(C)C)NC(=O)[C@H](Cc2c[nH]c3ccccc23)NC1=O [SEQ ID NO: 33, (H-Ac5c-Val-Aib-Glu-Ile-Gln-Leu-Met-His-Gln-Har-Ala-Lys( )-Trp-Leu-Asp( )-NH2)2] (I: H-[Ac5c]V[Aib]EIQLMHQ[hArg]AKWLD-NH2 / II: H-[Ac5c]V[Aib]EIQLMHQ[hArg]AKWLD-NH2; amide I:13-II:16, I:16-II:13 (inferred)) | higher than in vehicle-treated OVX and sham animals at all doses | higher than in vehicle-treated OVX animals at all doses | – | significantly increased | – | – | 1.10 ± 0.04 | significantly increased

— patent US20100048462A1, “TRUNCATED PTH PEPTIDES WITH A CYCLIC CONFORMATION” (Zealand Pharma A/S, priority 2006, published 2010)
